Assay results from article PMC5069162 (Anesthesiology, 2016).
Where “and” joins values, the source holds several entries; their conditions need not be identical. Equal entries are not always repeated. Where two headings read alike, the source gives them in different places.

Tests used:
11β-hydroxylase [1] = biological target: T1, 11β-hydroxylase (Rattus norvegicus, UniProt P15393); type: binding; settings: for IC50 / Hill coefficient for inhibition of specific 3H-etomidate binding: 2 nM 3H-etomidate; for IC50: 0.07 mg/ml protein; for Hill coefficient for inhibition of specific 3H-etomidate binding: equation 2; for IC50 higher than that of etomidate: ratio of IC50s for 3H-etomidate binding
T1 sequence (P15393 25-499): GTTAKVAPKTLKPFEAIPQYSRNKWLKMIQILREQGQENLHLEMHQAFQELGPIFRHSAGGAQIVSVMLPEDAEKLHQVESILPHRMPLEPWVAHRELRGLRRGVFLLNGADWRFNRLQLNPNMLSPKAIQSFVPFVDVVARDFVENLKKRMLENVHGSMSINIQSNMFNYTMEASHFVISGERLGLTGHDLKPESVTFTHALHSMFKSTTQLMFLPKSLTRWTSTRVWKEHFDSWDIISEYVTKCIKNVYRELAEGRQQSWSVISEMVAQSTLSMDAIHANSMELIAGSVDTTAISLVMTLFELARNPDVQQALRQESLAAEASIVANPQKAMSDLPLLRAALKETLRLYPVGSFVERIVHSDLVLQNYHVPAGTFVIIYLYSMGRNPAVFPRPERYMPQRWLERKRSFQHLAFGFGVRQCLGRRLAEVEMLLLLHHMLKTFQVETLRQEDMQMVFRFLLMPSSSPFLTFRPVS

[2] = test system: H295R adrenocortical cells; settings: cited from earlier work
rats = settings: in rats; cited from earlier work
11β-hydroxylase [3] = biological target: T1, 11β-hydroxylase; type: binding
rat adrenocortical cells = settings: read-out: IC50 for inhibiting corticosterone synthesis; cited from earlier work
[4] = after 2-hr infusion of parent drug in dogs; cited from earlier work
11β-hydroxylase [5] = settings: estimated by Zolle et al.; cited from earlier work
[6] = half-inhibitory concentration (IC50) for specific 3H-etomidate binding
[7] = read-out: half-inhibitory concentration (IC50) for specific 3H-etomidate binding

Row | Compound | IC50 (11β-hydroxylase [1]; [6]) | Hill coefficient for inhibition of specific 3H-etomidate binding (11β-hydroxylase [1]) | IC50 (11β-hydroxylase [1]; [7]) | also measured
1 | CC(C)c1cccc(C(C)C)c1O [propofol, reference compound] | > 100 µM | – | – | –
2 | CCOC(=O)c1cccn1[C@H](C)c1ccccc1 [carboetomidate] | – | −0.27 | ≥ 50 µM and 50 µM | IC50 for suppressing in vitro cortisol synthesis higher than etomidate ([2]; H295R adrenocortical cells): 2000 fold; potency at inhibiting cortisol synthesis relative to etomidate ([2]; adrenocortical cell line): three orders of magnitude less potent than etomidate; IC50 higher than that of etomidate (11β-hydroxylase [1]): 1900 fold
3 | CNC1(c2ccccc2Cl)CCCCC1=O (centres unmarked) [ketamine, reference compound] | ≥ 50 µM and 79 µM | −0.23 | – | –
4 | CCOC(=O)c1cncn1[C@H](C)c1ccccc1 [etomidate, reference compound] | – | −0.82 | – | hypnotic potency (rats): 0.53 ± 0.17 mg/kg; Kd (11β-hydroxylase [3]): 0.021 µM; maximum concentration of binding sites (Bmax), homologous competition (11β-hydroxylase [3]; 2 nM 3H-etomidate vs cold etomidate, equation 1): 11,700 CPM
5 | Cc1cccc([C@H](C)c2cnc[nH]2)c1C [dexmedetomidine, reference compound] | 2.2 µM | −0.33 | – | IC50 (rat adrenocortical cells): 1 µM
6 | C[C@H](c1ccccc1)n1cncc1C(=O)O [etomidate-CA] | – | −0.32 | 1100 µM | maximal metabolite concentration [4]: 1680 ng/ml and 7.8 μM
7 | cyclopropyl methoxycarbonyl metomidate [CPMM] | – | −0.55 | 0.143 µM | hypnotic potency (rats): 0.69 ± 0.04 mg/kg; IC50 higher than that of etomidate (11β-hydroxylase [1]): 5.5 fold
8 | COC(=O)c1cncn1C(C)c1ccc(I)cc1 (centres unmarked) | – | – | – | Kd (11β-hydroxylase [5]): 0.0116 ± 0.0025 µM
